Values quoted from earlier work, collected in paper PMC10323144, “Garbage in, garbage out: how reliable training data improved a virtual screening approach against SARS-CoV-2 MPro” (Frontiers in Pharmacology, 2023).

tested on: MPro; settings: compiled from peer-reviewed sources (287 compounds) ref the 18 original articles; cited from earlier work

Row | SMILES | Class (MPro activity class)
1 | COC(=O)N[C@H](C(=O)N1CCC[C@H]1C(=O)Nc1ccc([C@@H]2CC[C@@H](c3ccc(NC(=O)[C@@H]4CCCN4C(=O)[C@@H](NC(=O)OC)C(C)C)cc3)N2c2ccc(C(C)(C)C)cc2)cc1)C(C)C [Ombitasvir] | 0 (compounds with IC50 > 20 μM, percentage inhibition <80% at 20 µM or 50 μM, or percentage enzyme inhibition <50% at 10 µM were labelled as INACTIVE)
2 | COC[C@H](NC(=O)c1cnc(C)s1)C(=O)N[C@@H](COC)C(=O)N[C@@H](Cc1ccccc1)C(=O)[C@@]1(C)CO1 [Oprozomib] | 0 (compounds with IC50 > 20 μM, percentage inhibition <80% at 20 µM or 50 μM, or percentage enzyme inhibition <50% at 10 µM were labelled as INACTIVE)
3 | COc1c(OC2OC(C(=O)O)C(O)C(O)C2O)cc2oc(-c3ccccc3)cc(=O)c2c1O [Oroxylin A-7-O-β-D-glucuronide] | 0 (compounds with IC50 > 20 μM, percentage inhibition <80% at 20 µM or 50 μM, or percentage enzyme inhibition <50% at 10 µM were labelled as INACTIVE)
4 | CCOC(=O)C1=C[C@@H](OC(CC)CC)[C@H](NC(C)=O)[C@@H](N)C1 [Oseltamivir] | 0 (compounds with IC50 > 20 μM, percentage inhibition <80% at 20 µM or 50 μM, or percentage enzyme inhibition <50% at 10 µM were labelled as INACTIVE)
5 | CC(=O)c1cc([N+](=O)[O-])c(Sc2cccc(Cl)c2Cl)s1 [P005091] | 0 (compounds with IC50 > 20 μM, percentage inhibition <80% at 20 µM or 50 μM, or percentage enzyme inhibition <50% at 10 µM were labelled as INACTIVE)
6 | CC(=O)c1cc([N+](=O)[O-])c(Sc2ccc(F)cc2F)s1 [P22077] | 0 (compounds with IC50 > 20 μM, percentage inhibition <80% at 20 µM or 50 μM, or percentage enzyme inhibition <50% at 10 µM were labelled as INACTIVE)
7 | CC(C)CCC(=O)CC1c2ccccc2C(=O)N1c1ccc2ccc(Cl)nc2n1 (centres unmarked) [PAGOCLONE] | 0 (compounds with IC50 > 20 μM, percentage inhibition <80% at 20 µM or 50 μM, or percentage enzyme inhibition <50% at 10 µM were labelled as INACTIVE)
8 | O=C(CCl)N1CCN(Cc2cc(Cl)cc(Cl)c2)CC1 [PAU-UNI-8cdd41c7-1] | 1 (Compounds with IC50 < 10 µM or with a percentage of enzyme inhibition >50% at 10 µM were labelled as ACTIVE)
9 | O=C(O)C(S)=Cc1c[nH]c2ccc(F)cc12 [PD151746] | 0 (compounds with IC50 > 20 μM, percentage inhibition <80% at 20 µM or 50 μM, or percentage enzyme inhibition <50% at 10 µM were labelled as INACTIVE)
10 | COc1cccc2[nH]c(C(=O)NC(CC(C)C)C(=O)NC(CC3CCNC3=O)C(=O)CO)cc12 (centres unmarked) [PF-00835231] | 1 (Compounds with IC50 < 10 µM or with a percentage of enzyme inhibition >50% at 10 µM were labelled as ACTIVE)
11 | CCCc1ccc(OCC(=O)N(Cc2nc(-c3cccnc3)no2)C(C)C)cc1 [PI-1840] | 0 (compounds with IC50 > 20 μM, percentage inhibition <80% at 20 µM or 50 μM, or percentage enzyme inhibition <50% at 10 µM were labelled as INACTIVE)
12 | CCC(C)SSc1ncc[nH]1 (centres unmarked) [PX-12] | 0 (compounds with IC50 > 20 μM, percentage inhibition <80% at 20 µM or 50 μM, or percentage enzyme inhibition <50% at 10 µM were labelled as INACTIVE)
13 | Cc1cnc(C(=O)N[C@H]2CCCCC/C=C\[C@@H]3C[C@@]3(C(=O)NS(=O)(=O)C3CC3)NC(=O)[C@@H]3C[C@@H](Oc4nc5ccccc5c5ccccc45)CN3C2=O)cn1 [Paritaprevir] | 0 (compounds with IC50 > 20 μM, percentage inhibition <80% at 20 µM or 50 μM, or percentage enzyme inhibition <50% at 10 µM were labelled as INACTIVE)
14 | CCC(CC)C(NC(C)=O)C1C(N=C(N)N)CC(C(=O)O)C1O (centres unmarked) [Peramivir] | 0 (compounds with IC50 > 20 μM, percentage inhibition <80% at 20 µM or 50 μM, or percentage enzyme inhibition <50% at 10 µM were labelled as INACTIVE)
15 | COc1cc([C@H]2OC[C@H]3[C@@H]2CO[C@H]3c2ccc(OC)c(OC)c2)ccc1O [Phillygenin] | 0 (compounds with IC50 > 20 μM, percentage inhibition <80% at 20 µM or 50 μM, or percentage enzyme inhibition <50% at 10 µM were labelled as INACTIVE)
16 | COC(=O)N[C@H](C(=O)N1CCC[C@H]1c1nc2cc([C@H]3CC[C@H](c4cc5nc([C@@H]6CCCN6C(=O)[C@@H](NC(=O)OC)[C@@H](C)OC)[nH]c5cc4F)N3c3cc(F)c(N4CCC(c5ccc(F)cc5)CC4)c(F)c3)c(F)cc2[nH]1)[C@@H](C)OC [Pibrentasvir] | 0 (compounds with IC50 > 20 μM, percentage inhibition <80% at 20 µM or 50 μM, or percentage enzyme inhibition <50% at 10 µM were labelled as INACTIVE)
17 | O=C(O)[C@H]1C2CCC(CC2)[C@@H]1Nc1nc(-c2c[nH]c3ncc(F)cc23)ncc1F [Pimodivir] | 0 (compounds with IC50 > 20 μM, percentage inhibition <80% at 20 µM or 50 μM, or percentage enzyme inhibition <50% at 10 µM were labelled as INACTIVE)
18 | Cc1cc(CCCOc2c(C)cc(-c3noc(C(F)(F)F)n3)cc2C)on1 [Pleconaril] | 0 (compounds with IC50 > 20 μM, percentage inhibition <80% at 20 µM or 50 μM, or percentage enzyme inhibition <50% at 10 µM were labelled as INACTIVE)
19 | CC[C@@H]([C@H](C)O)n1ncn(-c2ccc(N3CCN(c4ccc(OC[C@@H]5CO[C@@](Cn6cncn6)(c6ccc(F)cc6F)C5)cc4)CC3)cc2)c1=O [Posaconazole] | 0 (compounds with IC50 > 20 μM, percentage inhibition <80% at 20 µM or 50 μM, or percentage enzyme inhibition <50% at 10 µM were labelled as INACTIVE)
20 | O=C1c2ccccc2NC(c2cc(Br)ccc2O)N1N=Cc1cc(Br)ccc1O (centres unmarked) [QZ1] | 0 (compounds with IC50 > 20 μM, percentage inhibition <80% at 20 µM or 50 μM, or percentage enzyme inhibition <50% at 10 µM were labelled as INACTIVE)
21 | O=C1c2ccccc2NC(c2cc(Cl)ccc2O)N1N=Cc1cc(Cl)ccc1O (centres unmarked) [QZ2] | 1 (Compounds with IC50 < 10 µM or with a percentage of enzyme inhibition >50% at 10 µM were labelled as ACTIVE)
22 | COc1cc(Br)cc(C=NN2C(=O)c3ccccc3NC2c2cc(Br)cc(OC)c2O)c1O (centres unmarked) [QZ3] | 0 (compounds with IC50 > 20 μM, percentage inhibition <80% at 20 µM or 50 μM, or percentage enzyme inhibition <50% at 10 µM were labelled as INACTIVE)
23 | COc1ccc(O)c(C=NN2C(=O)c3ccccc3NC2c2cc(OC)ccc2O)c1 (centres unmarked) [QZ4] | 1 (Compounds with IC50 < 10 µM or with a percentage of enzyme inhibition >50% at 10 µM were labelled as ACTIVE)
24 | O=C1c2ccccc2NC(c2cc([N+](=O)[O-])ccc2O)N1N=Cc1cc([N+](=O)[O-])ccc1O (centres unmarked) [QZ5] | 0 (compounds with IC50 > 20 μM, percentage inhibition <80% at 20 µM or 50 μM, or percentage enzyme inhibition <50% at 10 µM were labelled as INACTIVE)
25 | O=c1c(O)c(-c2ccc(O)c(O)c2)oc2cc(O)c(O)c(O)c12 [Quercetagetin] | 1 (Compounds with IC50 < 10 µM or with a percentage of enzyme inhibition >50% at 10 µM were labelled as ACTIVE)
26 | O=C(NC(Cc1cc(=O)[nH]c2ccccc12)C(=O)O)c1ccc(Cl)cc1 (centres unmarked) [REBAMIPIDE] | 0 (compounds with IC50 > 20 μM, percentage inhibition <80% at 20 µM or 50 μM, or percentage enzyme inhibition <50% at 10 µM were labelled as INACTIVE)
